Target: T1, recombinant human GR (Homo sapiens, UniProt P04150)
T1 construct: purchased Panvera/Invitrogen P2812 (kit P2893)
T1 sequence (P04150 1-777): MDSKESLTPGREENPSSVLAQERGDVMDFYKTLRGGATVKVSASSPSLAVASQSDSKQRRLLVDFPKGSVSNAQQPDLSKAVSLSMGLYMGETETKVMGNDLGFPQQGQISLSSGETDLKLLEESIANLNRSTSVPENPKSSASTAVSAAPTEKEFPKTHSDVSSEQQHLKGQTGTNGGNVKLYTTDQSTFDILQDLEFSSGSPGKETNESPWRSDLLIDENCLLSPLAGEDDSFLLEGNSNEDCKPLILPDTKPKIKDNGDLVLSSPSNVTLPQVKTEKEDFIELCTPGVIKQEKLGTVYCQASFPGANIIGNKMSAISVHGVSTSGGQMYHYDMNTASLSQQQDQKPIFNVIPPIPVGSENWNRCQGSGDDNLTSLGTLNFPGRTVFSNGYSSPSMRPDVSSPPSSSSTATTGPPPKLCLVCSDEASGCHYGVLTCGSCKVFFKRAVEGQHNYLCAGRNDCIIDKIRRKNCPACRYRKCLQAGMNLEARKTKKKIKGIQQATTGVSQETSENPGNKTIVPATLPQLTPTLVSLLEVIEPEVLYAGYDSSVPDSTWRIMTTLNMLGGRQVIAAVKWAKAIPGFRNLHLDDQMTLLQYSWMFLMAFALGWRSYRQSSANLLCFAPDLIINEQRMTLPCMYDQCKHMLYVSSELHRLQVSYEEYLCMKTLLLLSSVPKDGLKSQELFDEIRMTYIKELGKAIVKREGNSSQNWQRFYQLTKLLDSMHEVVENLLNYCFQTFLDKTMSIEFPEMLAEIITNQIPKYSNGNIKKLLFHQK
Experiment: Human Glucocorticoid Receptor (GR) fluorescence polarization assay
Type: binding
Conditions: GS Red tracer, 2 hours at room temperature
Method: Human Glucocorticoid Receptor (GR) Assay
The assay is based on a commercial kit from Panvera/Invitrogen (Part number P2893). The assay technology is fluorescence polarization. The kit utilises recombinant human GR (Panvera, Part number P2812), a Fluoromone™ labelled tracer (GS Red, Panvera, Part number P2894) and a Stabilizing Peptide 10× (Panvera, Part number P2815). The GR and Stabilizing Peptide reagents are stored at −70° C. while the GS Red is stored at −20° C. Also included in the kit are 1M DTT (Panvera, Part number P2325, stored at −20° C.) and GR Screening buffer 10× (Panvera, Part number P2814, stored at −70° C. initially but once thawed stored at room temperature). Avoid repeated freeze/thaws for all reagents. The GR Screening buffer 10× comprises 100 mM potassium phosphate, 200 mM sodium molybdate, 1 mM EDTA and 20% DMSO.
Test compounds (1 μL) and controls (1 μL) in 100% DMSO were added to black polystyrene 384-well plates (Greiner low volume black flat-bottom, part number 784076). 0% control was 100% DMSO and 100% control was 10 μM Dexamethasone. […] The plate was read in an Analyst plate reader (LJL Biosystems/Molecular Devices Corporation) or other similar plate reader capable of recording fluorescence polarization (excitation wavelength 530 nm, emission wavelength […] and a dichroic mirror at 561 nm). The IC50 values were calculated using XLfit model 205.

CC1=CC(C)(C)N(Cc2ccc(Cl)cc2)c2ccccc21 [CAS120109-44-6]
IC50: 240 nM

From patent publication US20090036484A1, “Use of Unsaturated Quionoline or Naphtalene Derivatives as Medicaments” (AstraZeneca AB, priority 2004, published 2009)
